According to ChEMBL document CHEMBL5380843 (J Med Chem, 2023):

Key:
Cytochrome P450 2C19 = Cytochrome P450 2C19 (Homo sapiens, UniProt P33261); assay: Inhibition of CYP2C19 in human liver microsomes using S-mephenytoin as substrate incubated for 15 to 45 mins in presence of NADPH; type: ADME, Microsome
[1] = Selectivity index, ratio of CC50 for cytotoxicity against human MT4 cells to EC50 for antiviral activity against wild type HIV-1 IIIB infected in human MT4 cells; type: toxicity, cell-based; conditions: read-out: Ratio CC50/EC50
[2] = test system: Human immunodeficiency virus 1; assay: Antiviral activity against wild type HIV-1 IIIB harboring reverse transcriptase K103N mutant infected in human MT4 cells assessed as protection against virus-induced cytopathic effect incubated for 5 days by MTT assay; type: functional, organism-based; conditions: Human immunodeficiency virus 1, IIIB, MT4, 120 h
[3] = Resistant factor, ratio of EC50 for antiviral activity against HIV-1 IIIB harboring reverse transcriptase K103N mutant to EC50 for antiviral activity against wild type HIV-1 IIIB; type: functional
[4] = test system: Human immunodeficiency virus 1; assay: Antiviral activity against wild type HIV-1 IIIB harboring reverse transcriptase […] mutant infected in human MT4 cells assessed as protection against virus-induced cytopathic effect incubated for 5 days by MTT assay; type: functional, organism-based; conditions: Human immunodeficiency virus 1, IIIB, MT4, 120 h
[5] = Resistant factor, ratio of EC50 for antiviral activity against HIV-1 IIIB harboring reverse transcriptase E138K mutant to EC50 for antiviral activity against wild type HIV-1 IIIB; type: functional
[6] = Resistant factor, ratio of EC50 for antiviral activity against HIV-1 IIIB harboring reverse transcriptase Y181C mutant to EC50 for antiviral activity against wild type HIV-1 IIIB; type: functional
[7] = test system: Human immunodeficiency virus 1; assay: Antiviral activity against wild type HIV-1 IIIB infected in human MT4 cells assessed as protection against virus-induced cytopathic effect incubated for 5 days by MTT assay; type: functional, organism-based; conditions: Human immunodeficiency virus 1, IIIB, MT4, 120 h
[8] = Cytotoxicity against human MT4 cells assessed as reduction in cell viability incubated for 5 days by MTT assay; type: toxicity, cell-based; conditions: time 5 day
[9] = Resistant factor, ratio of EC50 for antiviral activity against HIV-1 IIIB harboring reverse transcriptase […] mutant to EC50 for antiviral activity against wild type HIV-1 IIIB; type: functional
[10] = test system: Human immunodeficiency virus 1; assay: Antiviral activity against wild type HIV-1 IIIB harboring reverse transcriptase Y188L mutant infected in human MT4 cells assessed as protection against virus-induced cytopathic effect incubated for 5 days by MTT assay; type: functional, organism-based; conditions: Human immunodeficiency virus 1, IIIB, MT4, 120 h
[11] = Resistant factor, ratio of EC50 for antiviral activity against HIV-1 IIIB harboring reverse transcriptase Y188L mutant to EC50 for antiviral activity against wild type HIV-1 IIIB; type: functional
[12] = test system: Human immunodeficiency virus 1; assay: Antiviral activity against wild type HIV-1 IIIB harboring reverse transcriptase E138K mutant infected in human MT4 cells assessed as protection against virus-induced cytopathic effect incubated for 5 days by MTT assay; type: functional, organism-based; conditions: Human immunodeficiency virus 1, IIIB, MT4, 120 h
[13] = test system: Human immunodeficiency virus 1; assay: Antiviral activity against wild type HIV-1 IIIB harboring reverse transcriptase Y181C mutant infected in human MT4 cells assessed as protection against virus-induced cytopathic effect incubated for 5 days by MTT assay; type: functional, organism-based; conditions: Human immunodeficiency virus 1, IIIB, MT4, 120 h
[14] = biological target: Human immunodeficiency virus type 1 reverse transcriptase (Human immunodeficiency virus 1, UniProt Q72547); assay: Inhibition of recombinant wild type HIV-1 reverse transcriptase using DNA/RNA as substrate incubated for 40 mins by Pico-green dye based spectrofluorometric analysis

Chain of Cytochrome P450 2C19 (P33261 whole entry): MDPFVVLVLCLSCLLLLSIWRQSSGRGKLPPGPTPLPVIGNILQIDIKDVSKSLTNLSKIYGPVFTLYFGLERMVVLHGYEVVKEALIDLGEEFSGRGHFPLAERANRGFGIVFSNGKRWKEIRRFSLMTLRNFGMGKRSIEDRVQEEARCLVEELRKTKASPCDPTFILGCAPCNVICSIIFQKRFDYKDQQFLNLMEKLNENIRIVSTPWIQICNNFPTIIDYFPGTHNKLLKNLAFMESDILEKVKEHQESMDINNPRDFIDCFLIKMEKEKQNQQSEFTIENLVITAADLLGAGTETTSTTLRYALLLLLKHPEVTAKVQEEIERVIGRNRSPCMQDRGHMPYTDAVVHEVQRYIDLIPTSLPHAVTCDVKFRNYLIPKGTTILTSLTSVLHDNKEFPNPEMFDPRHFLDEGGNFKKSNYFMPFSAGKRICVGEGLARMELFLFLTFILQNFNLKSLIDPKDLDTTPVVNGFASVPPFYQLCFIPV

`C=C(C)[C@@H]1CCC2=CC(=O)C[C@@H](C)[C@]2(C)C1` [NOOTKATONE] showed an IC50 (Cytochrome P450 2C19) of 1570 nM.
In the case of `Cc1cc(-c2ccc(C#N)cc2)cc(C)c1Oc1nc(Nc2ccc(C#N)cc2)ncc1C(=O)NC1CC1`, the selectivity ratio [1] is reported as 10600, the EC50 [2] is reported as 32 nM and the “Ratio EC50” value [3] is reported as 2.9. The EC50 [4] was 51 nM, the “Ratio EC50” value [5] was 2.8 and the “Ratio EC50” value [6] was 14. For the same compound, the EC50 [7] was 11 nM, the CC50 at 120 h [8] was 116000 nM and the “Ratio EC50” value [9] was 4.6. The EC50 [10] was 209 nM, the “Ratio EC50” value [11] was 19 and the EC50 [12] was 31 nM. The EC50 [13] was 157 nM and the IC50 [14] was 111 nM.
In the case of `CCONC(=O)c1cnc(Nc2ccc(C#N)cc2)nc1Oc1c(C)cc(-c2ccc(C#N)cc2)cc1C`, the selectivity ratio [1] is reported as > 44200, the EC50 [2] is reported as 12 nM and the “Ratio EC50” value [3] is reported as 2.1. For the same compound, the EC50 [4] was 34 nM, the “Ratio EC50” value [5] was 1.3 and the “Ratio EC50” value [6] was 8.2. The EC50 [7] was 5 nM, the CC50 at 120 h [8] was > 248000 nM and the “Ratio EC50” value [9] was 6.1. For the same compound, the EC50 [10] was 138 nM, the “Ratio EC50” value [11] was 25 and the EC50 [12] was 7 nM. For the same compound, the EC50 [13] was 46 nM and the IC50 [14] was 94 nM.
With `CCNC(=O)c1cnc(Nc2ccc(C#N)cc2)nc1Oc1c(C)cc(-c2ccc(C#N)cc2)cc1C` the selectivity ratio [1] was 22500, the EC50 [2] was 13 nM and the “Ratio EC50” value [3] was 1.9. For the same compound, the EC50 [4] was 25 nM, the “Ratio EC50” value [5] was 4.2 and the “Ratio EC50” value [6] was 10. For the same compound, the EC50 [7] was 6 nM, the CC50 at 120 h [8] was 151000 nM and the “Ratio EC50” value [9] was 3.7. For the same compound, the EC50 [10] was 95 nM, the “Ratio EC50” value [11] was 14 and the EC50 [12] was 28 nM. The EC50 [13] was 68 nM and the IC50 [14] was 135 nM.
With `Cc1cc(-c2ccc(C#N)cc2)cc(C)c1Oc1nc(Nc2ccc(C#N)cc2)ncc1C(=O)NC1CCCCC1` the selectivity ratio [1] was > 1320, the EC50 [2] was 1330 nM and the “Ratio EC50” value [3] was 7.6. The EC50 [4] was 1680 nM, the “Ratio EC50” value [5] was 4.7 and the “Ratio EC50” value [6] was 26. For the same compound, the EC50 [7] was 174 nM, the CC50 at 120 h [8] was > 230000 nM and the “Ratio EC50” value [9] was 9.7. For the same compound, the EC50 [10] was 5140 nM, the “Ratio EC50” value [11] was 30 and the EC50 [12] was 817 nM. For the same compound, the EC50 [13] was 4460 nM and the IC50 [14] was 329 nM.
With `C#CCNC(=O)c1cnc(Nc2ccc(C#N)cc2)nc1Oc1c(C)cc(-c2ccc(C#N)cc2)cc1C` the selectivity ratio [1] was 25700, the EC50 [2] was 9 nM and the “Ratio EC50” value [3] was 1.6. The EC50 [4] was 16 nM, the “Ratio EC50” value [5] was 2.3 and the “Ratio EC50” value [6] was 5.5. For the same compound, the EC50 [7] was 5 nM, the CC50 at 120 h [8] was 145000 nM and the “Ratio EC50” value [9] was 2.9. The EC50 [10] was 59 nM, the “Ratio EC50” value [11] was 11 and the EC50 [12] was 13 nM. For the same compound, the EC50 [13] was 31 nM and the IC50 [14] was 72 nM.
